# Results: ChEMBL document CHEMBL2163249, “Exploration of natural compounds as sources of new bifunctional scaffolds targeting cholinesterases and beta amyloid aggregation: the case of chelerythrine” (Bioorg Med Chem, 2012)
# Target: Cholinesterase (Equus caballus) (UniProt P81908)
# Settings: at 2 mg/mL
# Description: Inhibition of horse BChE at 2 mg/ml by Ellman's method
# Cholinesterase (Equus caballus), sequence (P81908 whole entry): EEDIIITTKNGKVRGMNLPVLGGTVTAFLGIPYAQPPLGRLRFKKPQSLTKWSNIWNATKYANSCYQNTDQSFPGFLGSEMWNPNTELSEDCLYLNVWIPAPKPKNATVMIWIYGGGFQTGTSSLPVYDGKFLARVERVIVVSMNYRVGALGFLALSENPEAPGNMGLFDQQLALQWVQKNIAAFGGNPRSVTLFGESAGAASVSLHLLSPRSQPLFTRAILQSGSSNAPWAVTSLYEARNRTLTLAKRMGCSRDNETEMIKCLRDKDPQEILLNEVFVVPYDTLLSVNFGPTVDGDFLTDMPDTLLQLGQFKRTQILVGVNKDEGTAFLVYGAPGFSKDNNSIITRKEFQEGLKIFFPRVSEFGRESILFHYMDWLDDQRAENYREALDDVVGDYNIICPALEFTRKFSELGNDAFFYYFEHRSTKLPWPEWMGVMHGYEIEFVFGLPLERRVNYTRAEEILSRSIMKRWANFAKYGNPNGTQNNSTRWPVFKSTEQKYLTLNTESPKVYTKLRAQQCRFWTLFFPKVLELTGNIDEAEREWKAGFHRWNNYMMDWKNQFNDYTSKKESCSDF
row,Structure (SMILES),inhibition [%]
1,CCCCCCCCCCCC1=C(O)C(=O)C=C(O)C1=O,1.24
2,CC(=O)O[C@@]12C[C@@H](C)[C@@]3(O)[C@@H](C=C(CO)C[C@]4(O)C(=O)C(C)=C[C@@H]34)[C@@H]1C2(C)C,3.93
3,COc1ccc2c3c1O[C@H]1C[C@@H](O)C=C[C@@]31CCN(C)C2,37.8
4,CN1C(=O)[C@]23CC4=CC=C[C@H](O)[C@H]4N2C(=O)[C@@]1(CO)SS3,10.3
5,COC1=CC(=O)OC(/C=C/c2ccccc2)C1 (racemic),-2.41
6,CC[C@@]1([C@@H]2O[C@@H]([C@H]3O[C@@](O)(CO)[C@H](C)C[C@@H]3C)C[C@@H]2C)CC[C@H]([C@]2(C)CC[C@]3(C[C@H](O)[C@@H](C)[C@@H]([C@@H](C)[C@@H](OC)[C@H](C)C(=O)O)O3)O2)O1,2.48
7,COc1ccc([C@@H]2OC[C@@H]3[C@H]2CO[C@H]3c2ccc(OC)c(OC)c2)cc1OC,0.02
8,CC(C)(C)[C@]1(O)CC2OC(=O)CC23C(=O)OC2OC(=O)[C@H](O)C231 (stereo partly specified),10.9
9,Clc1ccc(C2CC3CCC2N3)cn1 (racemic),5.32
10,CC(=O)C1=C(O)[C@@H]2[C@H]3c4c[nH]c5cccc(c45)C[C@H]3C(C)(C)N2C1=O,6.85
11,CO[C@H]1[C@H](OC(=O)c2ccc(C)[nH]2)[C@H](O)[C@@H](Oc2ccc3c(O)c(NC(=O)c4c[nH]c(C(=O)Nc5c(O)c6ccc(O[C@H]7OC(C)(C)[C@@H](OC)[C@H](OC(=O)c8ccc(C)[nH]8)[C@@H]7O)c(C)c6oc5=O)c4C)c(=O)oc3c2C)OC1(C)C,3.14
12,O=C(O[C@@H]1Cc2c(O)cc(O)cc2O[C@@H]1c1cc(O)c(O)c(O)c1)c1cc(O)c(O)c(O)c1,-4.27
13,C/C(=C/C=C/[C@@H](C)C(=O)O)[C@H]1CN[C@H](C(=O)O)[C@H]1CC(=O)O,2.83
14,C=C[C@@]1(C)CC(=O)[C@]2(O)[C@@]3(C)[C@@H](O)CCC(C)(C)[C@@H]3[C@H](O)[C@H](OC(C)=O)[C@@]2(C)O1,1.35
15,CC1=CC(=O)CC(C)(C)C1(O)/C=C/C(C)=C\C(=O)O (racemic),-4.4
16,CCCCCCCCCCCCCC/C(C(=O)O)=C(\C)C(=O)O,9.23

row,Structure (SMILES),inhibition [%]
1,CNc1ccc2oc(C[C@H]3O[C@@]4(CC[C@H]3C)O[C@H]([C@H](C)C(=O)c3ccc[nH]3)[C@H](C)C[C@H]4C)nc2c1C(=O)O,-3.34
2,CC(=O)OCC1=C[C@H]2[C@@H]3C(C)(C)[C@]3(OC(=O)Cc3ccccc3)C[C@@H](C)[C@]2(O)[C@@H]2C=C(C)C(=O)[C@@]2(O)C1,6.06
3,Cc1cc2c(C(C)C)c(O)c(O)c(C=O)c2c(O)c1-c1c(C)cc2c(C(C)C)c(O)c(O)c(C=O)c2c1O,-2.11
4,O=C(O)/C=C/c1c[nH]c2ccccc12,4.54
5,c1ccc2c3c([nH]c2c1)CNCC3,-5.97
6,CS[C@H]1SC[C@H]2C(=O)N(C)[C@@H](C(C)C)C(=O)OC[C@@H](NC(=O)c3cnc4ccccc4n3)C(=O)N[C@@H](C)C(=O)N(C)[C@@H]1C(=O)N(C)[C@@H](C(C)C)C(=O)OC[C@@H](NC(=O)c1cnc3ccccc3n1)C(=O)N[C@@H](C)C(=O)N2C,-7.37
7,OC[C@@H]1[C@@H](O)[C@H](O)[C@H]2[C@@H](O)CCN21,1.12
8,C=C1CC[C@@H]2O[C@]2(C)CC[C@@H]2[C@@H]1CC2(C)C,1.64
9,C=C1O[C@@](CO)(n2cnc3c(N)ncnc32)[C@H](O)[C@@H]1O,-3.01
10,C[C@@H]1C[C@@H]([C@H](O)CC2CC(=O)NC(=O)C2)C(=O)[C@@H](C)C1,-2.08
11,CC(C)=CCC[C@](C)(O)[C@H]1CC[C@]2(C)[C@@H]1CC[C@@H]1[C@@]3(C)CCC(=O)C(C)(C)[C@@H]3CC[C@]12C,-2.48
12,COc1cccc2c1cc([N+](=O)[O-])c1c(C(=O)O)cc3c(c12)OCO3,22.7
13,O[C@H]1[C@H](O)[C@@H](O)CN2CC[C@H](O)[C@H]12,0.79
14,O=C(O)CCCc1c[nH]c2ccccc12,-5.54
15,CNC(=O)Oc1ccc2c(c1)[C@]1(C)CCN(C)[C@@H]1N2C,88
